Reference: ChEMBL document CHEMBL1130390, “Design and synthesis of novel imidazole-substituted dipeptide amides as potent and selective inhibitors of Candida albicans myristoylCoA:protein N-myristoyltransferase and identification of related tripeptide inhibitors with mechanism-based antifungal activity” (J Med Chem, 1997)

Columns and labels:
[1] = target: Peptide N-myristoyltransferase (Candida albicans)
[2] = target: T1, Peptide N-myristoyltransferase (Homo sapiens, UniProt P30419+O60551); test: Inhibition activity against N-myristoyltransferase (NMT) of human.; assay type: protein assay
T1 sequence (P30419 whole entry): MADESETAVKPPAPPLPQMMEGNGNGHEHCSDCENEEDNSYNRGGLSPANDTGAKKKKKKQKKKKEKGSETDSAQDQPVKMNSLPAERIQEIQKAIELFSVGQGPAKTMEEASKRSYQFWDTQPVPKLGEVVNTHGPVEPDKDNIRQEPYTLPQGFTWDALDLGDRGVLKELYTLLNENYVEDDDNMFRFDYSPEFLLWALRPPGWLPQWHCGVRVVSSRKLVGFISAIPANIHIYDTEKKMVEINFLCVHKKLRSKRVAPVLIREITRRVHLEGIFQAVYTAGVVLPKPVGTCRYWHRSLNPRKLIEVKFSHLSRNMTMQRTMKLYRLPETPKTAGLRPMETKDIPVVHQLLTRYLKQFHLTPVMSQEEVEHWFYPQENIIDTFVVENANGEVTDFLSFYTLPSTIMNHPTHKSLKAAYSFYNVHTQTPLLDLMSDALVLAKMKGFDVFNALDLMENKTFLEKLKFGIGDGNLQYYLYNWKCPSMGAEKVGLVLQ
T1 sequence (O60551 whole entry): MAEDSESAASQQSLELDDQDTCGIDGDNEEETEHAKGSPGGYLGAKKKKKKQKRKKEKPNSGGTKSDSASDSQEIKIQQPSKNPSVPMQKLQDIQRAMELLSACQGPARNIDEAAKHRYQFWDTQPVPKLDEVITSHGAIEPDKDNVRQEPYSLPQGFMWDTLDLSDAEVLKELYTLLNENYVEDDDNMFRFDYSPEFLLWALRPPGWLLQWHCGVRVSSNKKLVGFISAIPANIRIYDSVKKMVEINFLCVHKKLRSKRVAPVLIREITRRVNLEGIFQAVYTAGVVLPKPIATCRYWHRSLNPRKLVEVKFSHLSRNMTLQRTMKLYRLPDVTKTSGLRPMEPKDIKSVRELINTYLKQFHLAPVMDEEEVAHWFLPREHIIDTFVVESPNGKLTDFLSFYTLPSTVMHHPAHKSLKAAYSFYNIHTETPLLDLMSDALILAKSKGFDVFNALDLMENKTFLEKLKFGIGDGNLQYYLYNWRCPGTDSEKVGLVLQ

Candida albicans [3] = test: Growth inhibitory activity against candida albicans.; assay type: functional, organism-based
Cryptococcus neoformans = test: Growth inhibitory activity against Cryptococcus neoformans.; assay type: functional, organism-based
Candida albicans [4] = test: tested to obtain the effective concentration to inhibit candida albicans.; assay type: functional, organism-based

Compound	IC50 [1] [µM]	IC50 [2] [µM]	EC50 (Candida albicans [3]) [µM]	EC50 (Cryptococcus neoformans) [µM]	EC50 (Candida albicans [4]) [µM]
NCCCC[C@H](NC(=O)[C@H](CO)NC(=O)Cc1ccc(CCCCn2ccnc2)cc1)C(=O)NCCC1CCCCC1	0.31				
Cc1nc2ccccc2n1CCCCc1ccc(C(C)C(=O)N[C@@H](CO)C(=O)N[C@@H](CCCCN)C(=O)NCCC2CCCCC2)cc1 (stereo not given in full)	0.86	119.5			
Cc1nccn1CCCCc1ccc(CC(=O)N[C@@H](CO)C(=O)N[C@@H](CCCCN)C(=O)N[C@@H](CC2CCCCC2)C(=O)O)cc1	1.45	809.5	51	> 100	
NCCCC[C@H](NC(=O)[C@H](CO)NC(=O)Cc1ccc(CCCCn2ccnc2I)cc1)C(=O)NCCC1CCCCC1	1.88				
Cc1nccn1CCCCc1ccc(CC(=O)N[C@H](CO)C(=O)N[C@H](CCCCN)C(=O)N[C@H](CC2CCCCC2)C(=O)O)cc1	> 1000	> 1000		> 100	> 100
Cc1nccn1CCCCc1ccc(C(C)C(=O)N[C@@H](CO)C(=O)N[C@@H](CCCCN)C(=O)N[C@@H](CC2CCCCC2)C(=O)O)cc1 (stereo not given in full)	0.38	840		> 100	33
NCCCC[C@H](NC(=O)[C@H](CO)NC(=O)CCCCCCCCn1ccnc1)C(=O)NCCC1CCCCC1	5.5				
CCc1nccn1CCCCc1ccc(CC(=O)N[C@@H](CO)C(=O)N[C@@H](CCCCN)C(=O)NCCC2CCCCC2)cc1	0.147	28.2			
NCCCC[C@H](NC(=O)[C@H](CO)NC(=O)CCCCCCCCCCCn1ccnc1)C(=O)NCCC1CCCCC1	3				
NCCCC[C@H](NC(=O)[C@H](CO)NC(=O)CCCCCCCCCn1ccnc1)C(=O)NCCC1CCCCC1	3				
CC(C)c1nccn1CCCCc1ccc(CC(=O)N[C@@H](CO)C(=O)N[C@@H](CCCCN)C(=O)NCCC2CCCCC2)cc1	0.2	> 100			
COC(=O)[C@H](NC(=O)[C@H](CCCCN)NC(=O)[C@H](CO)NC(=O)Cc1ccc(CCCCn2ccnc2C)cc1)C(=O)O	0.081	22.7		> 100	> 100
NCCCC[C@H](NC(=O)[C@H](CO)NC(=O)Cc1ccc(CCCCCn2ccnc2)cc1)C(=O)NCCC1CCCCC1	1.2				
CC(C(=O)N[C@@H](CO)C(=O)N[C@@H](CCCCN)C(=O)NCCC1CCCCC1)c1ccc(CCCCn2ccnc2Cl)cc1 (stereo not given in full)	2.05	142			
